Test results taken from ChEMBL document CHEMBL4699513, “Sulfamic acid catalyzed synthesis of new 3,5-[(sub)phenyl]-1H-pyrazole bearing N-isonicotinoyl: And their pharmacological activity evaluation” (2020).
≈ marks a conversion by molar mass, not a printed value. Calls of active or inactive are those of the source. No cut-off for these calls is given here.

Columns and labels:
Escherichia coli [1] = test: Antimicrobial activity against Escherichia coli ATCC 25922 incubated for 24 hrs by broth microdilution method; assay type: functional
Staphylococcus aureus [2] = test: Antimicrobial activity against Staphylococcus aureus ATCC 29737 assessed as zone of inhibition at 4 mg/ml incubated for 24 hrs by agar well diffusion method; assay type: functional; conditions: read-out: IZ
Pseudomonas aeruginosa [3] = test: Antimicrobial activity against Pseudomonas aeruginosa ATCC 19429 incubated for 24 hrs by broth microdilution method; assay type: functional
Salmonella typhi [4] = test: Antimicrobial activity against Salmonella typhi ATCC 23564 assessed as zone of inhibition at 4 mg/ml incubated for 24 hrs by agar well diffusion method; assay type: functional, Salmonella enterica subsp. enterica serovar Typhi; conditions: Salmonella enterica, read-out: IZ
Salmonella typhi [5] = test: Antimicrobial activity against Salmonella typhi ATCC 23564 incubated for 24 hrs by broth microdilution method; assay type: functional, Salmonella enterica subsp. enterica serovar Typhi; conditions: Salmonella enterica
Pseudomonas aeruginosa [6] = test: Antimicrobial activity against Pseudomonas aeruginosa ATCC 19429 assessed as zone of inhibition at 4 mg/ml incubated for 24 hrs by agar well diffusion method; assay type: functional; conditions: for zone of inhibition at 4000 µg/mL: read-out: IZ
Escherichia coli [7] = test: Antimicrobial activity against Escherichia coli ATCC 25922 assessed as zone of inhibition at 4 mg/ml incubated for 24 hrs by agar well diffusion method; assay type: functional; conditions: read-out: IZ
Staphylococcus aureus [8] = test: Antimicrobial activity against Staphylococcus aureus ATCC 29737 incubated for 24 hrs by broth microdilution method; assay type: functional
[9] = tested on: Mycobacterium tuberculosis; test: Antimycobacterial activity against Mycobacterium tuberculosis H37Rv assessed as bacterial growth inhibition at MIC of 566 uM; assay type: functional; parameters: scale not given: the % may be the effect or the level left
[10] = tested on: Mycobacterium tuberculosis; test: Antimycobacterial activity against Mycobacterium tuberculosis H37Rv assessed as bacterial growth inhibition; assay type: functional
[11] = Antioxidant activity assessed as DPPH radical scavenging activity at 250 to 1000 ug/ml after 30 mins by UV-Vis spectrophotometric analysis; assay type: functional; conditions: dose microg/ml 250-1000, time 30.0 min
[12] = tested on: Mycobacterium tuberculosis; test: Antimycobacterial activity against Mycobacterium tuberculosis H37Rv assessed as bacterial growth inhibition at MIC of 614 uM; assay type: functional; parameters: scale not given: the % may be the effect or the level left
[13] = tested on: Mycobacterium tuberculosis; test: Antimycobacterial activity against Mycobacterium tuberculosis H37Rv assessed as bacterial growth inhibition at MIC of 1343 uM; assay type: functional; parameters: scale not given: the % may be the effect or the level left
[14] = tested on: Mycobacterium tuberculosis; test: Antimycobacterial activity against Mycobacterium tuberculosis H37Rv assessed as bacterial growth inhibition at the MIC of 153 uM; assay type: functional; parameters: scale not given: the % may be the effect or the level left
[15] = tested on: Mycobacterium tuberculosis; test: Antimycobacterial activity against Mycobacterium tuberculosis H37Rv assessed as bacterial growth inhibition at MIC of 15 uM; assay type: functional; parameters: scale not given: the % may be the effect or the level left
[16] = tested on: Mycobacterium tuberculosis; test: Antimycobacterial activity against Mycobacterium tuberculosis H37Rv assessed as bacterial growth inhibition at MIC of 1.4 uM; assay type: functional; parameters: scale not given: the % may be the effect or the level left
HeLa = test: Anticancer activity against human HeLa cells assessed as inhibition of cell growth at 40 to 80 ug/ml by sulforhodamine B assay; assay type: functional, cell-based; conditions: dose microg/ml 40-80
[17] = tested on: Mycobacterium tuberculosis; test: Antimycobacterial activity against Mycobacterium tuberculosis H37Rv assessed as bacterial growth inhibition at MIC of 144 uM; assay type: functional; parameters: scale not given: the % may be the effect or the level left
MCF7 [18] = test: Anticancer activity against human MCF7 cells assessed as inhibition of cell growth at 80 ug/ml by sulforhodamine B assay; assay type: functional, cell-based; conditions: dose 80.0 µg/ml
[19] = tested on: Mycobacterium tuberculosis; test: Antimycobacterial activity against Mycobacterium tuberculosis H37Rv assessed as bacterial growth inhibition at MIC of 164 uM; assay type: functional; parameters: scale not given: the % may be the effect or the level left
[20] = tested on: Mycobacterium tuberculosis; test: Antimycobacterial activity against Mycobacterium tuberculosis H37Rv assessed as bacterial growth inhibition at MIC of 294 uM; assay type: functional; parameters: scale not given: the % may be the effect or the level left
[21] = tested on: Mycobacterium tuberculosis; test: Antimycobacterial activity against Mycobacterium tuberculosis H37Rv assessed as bacterial growth inhibition at MIC of 34 uM; assay type: functional; parameters: scale not given: the % may be the effect or the level left
MCF7 [22] = test: Anticancer activity against human MCF7 cells assessed as inhibition of cell growth at 20 to 80 ug/ml by sulforhodamine B assay; assay type: functional, cell-based; conditions: dose microg/ml 20-80
[23] = tested on: Mycobacterium tuberculosis; test: Antimycobacterial activity against Mycobacterium tuberculosis H37Rv assessed as bacterial growth inhibition at MIC of 31 uM; assay type: functional; parameters: scale not given: the % may be the effect or the level left
[24] = tested on: Mycobacterium tuberculosis; test: Antimycobacterial activity against Mycobacterium tuberculosis H37Rv assessed as bacterial growth inhibition at the MIC of 266 uM; assay type: functional; parameters: scale not given: the % may be the effect or the level left
[25] = tested on: Mycobacterium tuberculosis; test: Antimycobacterial activity against Mycobacterium tuberculosis H37Rv assessed as bacterial growth inhibition at MIC of 237 uM; assay type: functional; parameters: scale not given: the % may be the effect or the level left

Structure (SMILES) | MIC (Escherichia coli [1]) [µM] | zone of inhibition at 4000 µg/mL (Staphylococcus aureus [2]) [mm] | MIC (Pseudomonas aeruginosa [3]) [µM] | zone of inhibition at 4000 µg/mL (Salmonella typhi [4]) [mm] | MIC (Salmonella typhi [5]) [µM] | zone of inhibition at 4000 µg/mL (Pseudomonas aeruginosa [6]) [mm] | zone of inhibition at 4000 µg/mL (Escherichia coli [7]) [mm] | MIC (Staphylococcus aureus [8]) [µM] | MIC [10] [µM] | Activity [11] | other results
CN[C@@H]1[C@H](O[C@H]2[C@H](O[C@H]3[C@H](O)[C@@H](O)[C@H](N=C(N)N)[C@@H](O)[C@@H]3N=C(N)N)O[C@@H](C)[C@]2(O)C=O)O[C@@H](CO)[C@H](O)[C@H]1O [STREPTOMYCIN] | 5.3 (≈ 3.08 µg/mL) | 30.6 | 5.3 (≈ 3.08 µg/mL) | 29.1 | 5.3 (≈ 3.08 µg/mL) | 25 | 22.2 | 5.3 (≈ 3.08 µg/mL) | – | – | –
O=C(c1ccncc1)N1NC(c2ccc(Cl)cc2Cl)=CC1c1cccc([N+](=O)[O-])c1 (configuration not stated) | 113 (≈ 49.9 µg/mL) | 23.8 | 453 (≈ 200 µg/mL) | 21 | 453 (≈ 200 µg/mL) | – | 12.4 | 226 (≈ 99.7 µg/mL) | 566 (≈ 250 µg/mL) | Active | Activity [9]: 95%
O=C(c1ccncc1)N1NC(c2ccc(Cl)cc2)=CC1c1ccc([N+](=O)[O-])cc1 (configuration not stated) | 122 (≈ 49.6 µg/mL) | 23.4 | 122 (≈ 49.6 µg/mL) | 18.3 | 245 (≈ 99.7 µg/mL) | 14.2 | 17.1 | 245 (≈ 99.7 µg/mL) | 614 (≈ 250 µg/mL) | Active | Activity [12]: 95%
O=C(c1ccncc1)N1NC(c2ccccc2)=CC1c1cccc([N+](=O)[O-])c1 (configuration not stated) | 268 (≈ 99.8 µg/mL) | 8.4 | 67 (≈ 24.9 µg/mL) | 15.3 | 537 (≈ 200 µg/mL) | 12.3 | 10.2 | 537 (≈ 200 µg/mL) | 1340 (≈ 500 µg/mL) | Active | Activity [13]: 95%
O=C(c1ccncc1)N1NC(c2ccc(Br)cc2)=CC1c1ccccc1 (configuration not stated) | 123 (≈ 50 µg/mL) | – | 123 (≈ 50 µg/mL) | – | 492 (≈ 200 µg/mL) | 10.3 | – | 492 (≈ 200 µg/mL) | 153 (≈ 62.2 µg/mL) | Active | Activity [14]: 97%
CC[C@@H](CO)NCCN[C@@H](CC)CO [ETHAMBUTOL] | – | – | – | – | – | – | – | – | 15 (≈ 3.06 µg/mL) | – | Activity [15]: 99%
NNC(=O)c1ccncc1 [ISONIAZID] | – | – | – | – | – | – | – | – | 1.4 (≈ 0.192 µg/mL) | – | Activity [16]: 99%
COc1cccc(C2=CC(c3ccc(Br)cc3)N(C(=O)c3ccncc3)N2)c1 (configuration not stated) | 57 (≈ 24.9 µg/mL) | 26.4 | 229 (≈ 99.9 µg/mL) | 22.4 | 114 (≈ 49.7 µg/mL) | 14.3 | 16.4 | 14 (≈ 6.11 µg/mL) | 144 (≈ 62.8 µg/mL) | Active | Activity (HeLa): Active; Activity [17]: 98%; Activity (MCF7 [18]): Active
CC1(C)S[C@@H]2[C@H](NC(=O)[C@H](N)c3ccccc3)C(=O)N2[C@H]1C(=O)O [AMPICILLIN] | 8.9 (≈ 3.11 µg/mL) | 27.3 | – | – | – | – | 24.4 | 8.9 (≈ 3.11 µg/mL) | – | – | –
O=C(c1ccncc1)N1NC(c2ccc(Cl)cc2)=CC1c1ccc(F)cc1 (configuration not stated) | 32 (≈ 12.2 µg/mL) | 22.3 | 131 (≈ 49.8 µg/mL) | – | 263 (≈ 99.9 µg/mL) | 12.3 | 15 | 131 (≈ 49.8 µg/mL) | 164 (≈ 62.3 µg/mL) | Active | Activity [19]: 96%
O=C(c1ccncc1)N1NC(c2ccc(F)cc2)=CC1c1ccc(Br)cc1 (configuration not stated) | 58 (≈ 24.6 µg/mL) | 17.8 | 29 (≈ 12.3 µg/mL) | 22.3 | 117 (≈ 49.6 µg/mL) | 12.4 | – | 235 (≈ 99.7 µg/mL) | 294 (≈ 125 µg/mL) | Active | Activity [20]: 96%
Cc1ccc(C2=CC(c3ccc(F)cc3)N(C(=O)c3ccncc3)N2)cc1 (configuration not stated) | 139 (≈ 50 µg/mL) | 27 | 139 (≈ 50 µg/mL) | – | 278 (≈ 99.9 µg/mL) | – | – | 17 (≈ 6.11 µg/mL) | 34 (≈ 12.2 µg/mL) | Active | Activity [21]: 99%; inhibition zone (IZ) (Pseudomonas aeruginosa [6]): Active; Activity (MCF7 [22]): Active
COc1cccc(C2=CC(c3ccc(Cl)cc3)N(C(=O)c3ccncc3)N2)c1 (configuration not stated) | 127 (≈ 49.8 µg/mL) | 27.2 | 63 (≈ 24.7 µg/mL) | – | 511 (≈ 200 µg/mL) | 12.3 | 12.3 | 31 (≈ 12.1 µg/mL) | 31 (≈ 12.1 µg/mL) | Active | Activity [23]: 99%
Cc1ccc(C2C=C(c3ccc(Cl)cc3)NN2C(=O)c2ccncc2)cc1 (configuration not stated) | 533 (≈ 200 µg/mL) | – | 133 (≈ 50 µg/mL) | 21.4 | 533 (≈ 200 µg/mL) | – | 12.6 | 66 (≈ 24.8 µg/mL) | 266 (≈ 100 µg/mL) | Active | Activity [24]: 98%
Cc1ccc(C2=CC(c3ccc(Br)cc3)N(C(=O)c3ccncc3)N2)cc1 (configuration not stated) | 118 (≈ 49.6 µg/mL) | 25.4 | 14 (≈ 5.88 µg/mL) | – | 237 (≈ 99.6 µg/mL) | 20.4 | – | 14 (≈ 5.88 µg/mL) | 237 (≈ 99.6 µg/mL) | Active | Activity [25]: 97%
